Experimental data reported in PubChem BioAssay AID1963980 (Molecular Pharmacology Branch, DTP, NCI, 2024).
One block for each compound: values may come before it.

Test system: 475296-252-R-J1-PDC spheroid viability
Assay: Anticancer human tumor 475296-252-R-J1-PDC patient-derived rectal carcinoma cell line growth inhibition [PI3K]
Conditions: spheroids with HUVEC and MSC; for IC50: curve of first compound; for viability, T/C: stronger effect = lower value
Method in brief: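 Agents were dosed from a top concentration near clinical Cmax (otherwise 10 microM) in half-log decrements, alone or combined with PI3K inhibitors. The spheroids contain tumor cells plus endothelial (HUVEC) and MSC stroma; viability is measured.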

[1] = second compound 0.00316 µM, first compound 0.0316 µM
[2] = second compound 0.00316 µM, first compound 0.1 µM
[3] = second compound 0.00316 µM, first compound 0.316 µM
[4] = second compound 0.00316 µM, first compound 1 µM
[5] = second compound 0.00316 µM, first compound 3.16 µM
[6] = second compound 0.00316 µM, first compound 10 µM
[7] = second compound 0.01 µM, first compound 0.0316 µM
[8] = second compound 0.01 µM, first compound 0.1 µM
[9] = second compound 0.01 µM, first compound 0.316 µM
[10] = second compound 0.01 µM, first compound 1 µM
[11] = second compound 0.01 µM, first compound 3.16 µM
[12] = second compound 0.01 µM, first compound 10 µM
[13] = second compound 0.0316 µM, first compound 0.0316 µM
[14] = second compound 0.0316 µM, first compound 0.1 µM
[15] = second compound 0.0316 µM, first compound 0.316 µM
[16] = second compound 0.0316 µM, first compound 1 µM
[17] = second compound 0.0316 µM, first compound 3.16 µM
[18] = second compound 0.0316 µM, first compound 10 µM
[19] = second compound 0.1 µM, first compound 0.0316 µM
[20] = second compound 0.1 µM, first compound 0.1 µM
[21] = second compound 0.1 µM, first compound 0.316 µM
[22] = second compound 0.1 µM, first compound 1 µM
[23] = second compound 0.1 µM, first compound 3.16 µM
[24] = second compound 0.1 µM, first compound 10 µM
[25] = second compound 0.316 µM, first compound 0.0316 µM
[26] = second compound 0.316 µM, first compound 0.1 µM
[27] = second compound 0.316 µM, first compound 0.316 µM
[28] = second compound 0.316 µM, first compound 1 µM
[29] = second compound 0.316 µM, first compound 3.16 µM
[30] = second compound 0.316 µM, first compound 10 µM
[31] = second compound 1 µM, first compound 0.0316 µM
[32] = second compound 1 µM, first compound 0.1 µM
[33] = second compound 1 µM, first compound 0.316 µM
[34] = second compound 1 µM, first compound 1 µM
[35] = second compound 1 µM, first compound 3.16 µM
[36] = second compound 1 µM, first compound 10 µM
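Further: spheroids exposed to agents for seven days before readout.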

IC50 (second compound 0.00316 µM): 7.99 µM
IC50 (second compound 0.01 µM): 2.07 µM
IC50 (second compound 0.0316 µM): 0.875 µM
IC50 (second compound 0.1 µM): 0.228 µM
IC50 (second compound 0.316 µM): 0.134 µM
IC50 (second compound 1 µM): < 0.0316 µM
Structure (SMILES): C#Cc1c(F)ccc2cc(O)cc(-c3ncc4c(N5CC6CCC(C5)N6)nc(OCC56CCCN5CC(F)C6)nc4c3F)c12 (stereo not drawn) + COc1c(OCCCN2CCOCC2)ccc2c3n(c(=NC(=O)c4cnc(N)nc4)nc12)CCN3
viability, T/C [1]: 85.9%
viability, T/C [2]: 87.5%
viability, T/C [3]: 79.7%
viability, T/C [4]: 75.3%
viability, T/C [5]: 59.2%
viability, T/C [6]: 47.8%
viability, T/C [7]: 89.5%
viability, T/C [8]: 90.8%
viability, T/C [9]: 68%
viability, T/C [10]: 57.2%
viability, T/C [11]: 48.9%
viability, T/C [12]: 39.9%
viability, T/C [13]: 80.6%
viability, T/C [14]: 76.4%
viability, T/C [15]: 65.4%
viability, T/C [16]: 46.1%
viability, T/C [17]: 31.1%
viability, T/C [18]: 14.3%
viability, T/C [19]: 67%
viability, T/C [20]: 68.9%
viability, T/C [21]: 40.7%
viability, T/C [22]: 23%
viability, T/C [23]: 8.13%
viability, T/C [24]: 3.98%
viability, T/C [25]: 64.5%
viability, T/C [26]: 57.4%
viability, T/C [27]: 28.3%
viability, T/C [28]: 7.5%
viability, T/C [29]: 3.69%
viability, T/C [30]: 2.51%
viability, T/C [31]: 45.9%
viability, T/C [32]: 34.2%
viability, T/C [33]: 21.3%
viability, T/C [34]: 6.91%
viability, T/C [35]: 5.05%
viability, T/C [36]: 4.55%

IC50 (second compound 0.00316 µM): > 10 µM
IC50 (second compound 0.01 µM): > 10 µM
IC50 (second compound 0.0316 µM): > 10 µM
IC50 (second compound 0.1 µM): > 10 µM
IC50 (second compound 0.316 µM): > 10 µM
IC50 (second compound 1 µM): > 10 µM
Structure (SMILES): C=CC(=O)N1CCN(c2nc(=O)n(-c3c(C)ccnc3C(C)C)c3nc(-c4c(O)cccc4F)c(F)cc23)C(C)C1 (stereo not drawn) + COc1c(OCCCN2CCOCC2)ccc2c3n(c(=NC(=O)c4cnc(N)nc4)nc12)CCN3
viability, T/C [1]: 102%
viability, T/C [2]: 101%
viability, T/C [3]: 101%
viability, T/C [4]: 99.4%
viability, T/C [5]: 110%
viability, T/C [6]: 106%
viability, T/C [7]: 94.3%
viability, T/C [8]: 99.2%
viability, T/C [9]: 93.8%
viability, T/C [10]: 105%
viability, T/C [11]: 106%
viability, T/C [12]: 98.1%
viability, T/C [13]: 94.4%
viability, T/C [14]: 91.1%
viability, T/C [15]: 91.2%
viability, T/C [16]: 98.7%
viability, T/C [17]: 91.4%
viability, T/C [18]: 108%
viability, T/C [19]: 91.6%
viability, T/C [20]: 85.5%
viability, T/C [21]: 84%
viability, T/C [22]: 97.8%
viability, T/C [23]: 86%
viability, T/C [24]: 87.1%
viability, T/C [25]: 75.7%
viability, T/C [26]: 78.3%
viability, T/C [27]: 64.9%
viability, T/C [28]: 83.6%
viability, T/C [29]: 77.5%
viability, T/C [30]: 81%
viability, T/C [31]: 58.2%
viability, T/C [32]: 65.7%
viability, T/C [33]: 63.7%
viability, T/C [34]: 63.9%
viability, T/C [35]: 58.1%
viability, T/C [36]: 69.8%

IC50 (second compound 0.00316 µM): > 10 µM
IC50 (second compound 0.01 µM): > 10 µM
IC50 (second compound 0.0316 µM): > 10 µM
IC50 (second compound 0.1 µM): > 10 µM
IC50 (second compound 0.316 µM): > 10 µM
IC50 (second compound 1 µM): > 10 µM
Structure (SMILES): CC(Cn1ccc(-c2ccc(C#N)c(Cl)c2)n1)NC(=O)c1cc(C(C)O)[nH]n1 (stereo not drawn) + COc1c(OCCCN2CCOCC2)ccc2c3n(c(=NC(=O)c4cnc(N)nc4)nc12)CCN3
viability, T/C [1]: 106%
viability, T/C [2]: 99.3%
viability, T/C [3]: 103%
viability, T/C [4]: 91.7%
viability, T/C [5]: 107%
viability, T/C [6]: 94.7%
viability, T/C [7]: 102%
viability, T/C [8]: 101%
viability, T/C [9]: 111%
viability, T/C [10]: 95.8%
viability, T/C [11]: 102%
viability, T/C [12]: 87.7%
viability, T/C [13]: 97%
viability, T/C [14]: 87.6%
viability, T/C [15]: 89.7%
viability, T/C [16]: 81.2%
viability, T/C [17]: 90.6%
viability, T/C [18]: 88.2%
viability, T/C [19]: 84.6%
viability, T/C [20]: 88.7%
viability, T/C [21]: 77.8%
viability, T/C [22]: 95.3%
viability, T/C [23]: 91.6%
viability, T/C [24]: 83%
viability, T/C [25]: 73.8%
viability, T/C [26]: 74%
viability, T/C [27]: 73.4%
viability, T/C [28]: 71.7%
viability, T/C [29]: 79.1%
viability, T/C [30]: 67.3%
viability, T/C [31]: 65.2%
viability, T/C [32]: 68.7%
viability, T/C [33]: 75.8%
viability, T/C [34]: 62.2%
viability, T/C [35]: 71%
viability, T/C [36]: 64%

IC50 (second compound 0.00316 µM): > 10 µM
IC50 (second compound 0.01 µM): > 10 µM
IC50 (second compound 0.0316 µM): > 10 µM
IC50 (second compound 0.1 µM): 7.77 µM
IC50 (second compound 0.316 µM): 5.48 µM
IC50 (second compound 1 µM): 1.4 µM
Structure (SMILES): CC1(C)CCC(Nc2ncc(C(F)(F)F)c(-c3c[nH]c4c(P(C)(C)=O)c(C#N)ccc34)n2)CN1 (stereo not drawn) + COc1c(OCCCN2CCOCC2)ccc2c3n(c(=NC(=O)c4cnc(N)nc4)nc12)CCN3
viability, T/C [1]: 91.7%
viability, T/C [2]: 93.5%
viability, T/C [3]: 115%
viability, T/C [4]: 130%
viability, T/C [5]: 147%
viability, T/C [6]: 63.2%
viability, T/C [7]: 101%
viability, T/C [8]: 96%
viability, T/C [9]: 112%
viability, T/C [10]: 119%
viability, T/C [11]: 140%
viability, T/C [12]: 52.2%
viability, T/C [13]: 85.3%
viability, T/C [14]: 86.7%
viability, T/C [15]: 95%
viability, T/C [16]: 103%
viability, T/C [17]: 125%
viability, T/C [18]: 56.1%
viability, T/C [19]: 79.9%
viability, T/C [20]: 85.4%
viability, T/C [21]: 91.7%
viability, T/C [22]: 82%
viability, T/C [23]: 98.5%
viability, T/C [24]: 39.4%
viability, T/C [25]: 69.1%
viability, T/C [26]: 76.8%
viability, T/C [27]: 72%
viability, T/C [28]: 78.1%
viability, T/C [29]: 74.3%
viability, T/C [30]: 23.7%
viability, T/C [31]: 57.4%
viability, T/C [32]: 50.5%
viability, T/C [33]: 49.8%
viability, T/C [34]: 54.9%
viability, T/C [35]: 44.2%
viability, T/C [36]: 9.59%
